Test [1] addresses Sigma-1 (human) (Homo sapiens, UniProt Q99720). The experiment in a line: sigma-1 radioligand binding screen. As to the method: (§1) The NMDA receptor (PCP site) screen was conducted according to Goldman, M. E. et al. FEBS Letters 85, […]. The norepinephrine transporter screen was conducted according to Galli A et al. J. Exp. Biol. 1995, 198, 2197. The dopamine and serotonin transporter screens were conducted according to Gu, H. et al. J. Biol. Chem. 1994, 269(10), 7124. The sigma-1 screen was conducted according to de Costa B. R. FEBS 1989, 251, 53.

Test [2] has as its target 5-HT Transporter (UniProt P31645). Nature of the test: serotonin transporter radioligand binding screen. As to the method:
as §1

In test [3] the target is NE Transporter (Homo sapiens, UniProt P23975). Nature of the test: norepinephrine transporter radioligand binding screen. As for the experimental part: as §1
For test [4], the system named is rats. The experiment in a line: MK-801-induced locomotion and stereotypies, animal model of psychosis. The note with it: male Wistar rats; 1.0, 2.5 and 5.0 mg/kg i.p.; 0.3 mg/kg MK-801 i.p. The test is classed as in vivo, rat. The source says:
The non-competitive NMDA receptor antagonist MK-801 induces stereotypies and hyperactivity in rodents (see: Carlsson, M. and Carlsson, A., J. Neural Transm., 75, 221 (1989)) by interacting with the NMDA receptor-associated ion channel. Phencyclidine, which also interferes with the NMDA receptor, produces psychotic effects in humans similar in many respects to schizophrenia. […] The neuroleptics haloperidol, clozapine and raclopride are able to reverse the behavioral changes induced by MK-801 in rats (Gattaz, W. F., Schummer, B. and Behrens, S., J. Neural Transm., 96, 227 (1994)). Therefore the MK-801-induced activity and stereotypies in rats may represent an appropriate animal model to test the potential efficacy of antipsychotic drugs.
Male Wistar rats (Iffa Credo, St Germain/l'Arbresle, France), weight 250-300 g were housed 2 per cage on a 12 h/12 h light dark cycle (lights on at 7.00 a.m.) at a room temperature of 21±2° C. for a minimum of 5 days before testing. All animals had access to commercial food and tap water ad libitum. […]
On the day of the experiment, rats were treated with either reference drug vehicle, the reference drugs haloperidol or clozapine the test compound vehicle or test compounds. […] Stereotypies, defined as wall-contacts with the snout, and locomotion, defined as turn-rounds of 180°, were assessed during 5 minute periods.

In test [5] the target is NMDA (PCP site). Nature of the test: NMDA receptor (PCP site) radioligand binding screen. As to the method:
as §1

Test [6] can be described thus: acetic acid writhing model (in vivo analgesia). To be noted: iv; administered intravenously. As to the method: (§2) The acetic acid writhing model was conducted according to Inoue K. et al. Arzneim. Forsch 1991, 41(I), 235. The formalin model was conducted according to Hunskaar, S. et al. J. Neurosci Meth. 1985, 14, 69. The tail flick model was conducted according to D'Amour F. E. and Smith D. L. J. Pharmacol. Exp. Ther. 1941, 72, 74. Compound 6 was administered intravenously.

The subject of test [7] is rats. The experiment in a line: learned helplessness test in rats. The test is classed as in vivo, rat. To be noted: male Wistar rats; dose of 5 mg/kg i.p. As for the experimental part: The objective of this study was to evaluate the potential antidepressant activity of compounds in the learned helplessness test in rats.
Male rats (Wistar, Iffa Credo, St.-Germain/1″Arbresle, France) with initial weight of 180-200 g at the beginning of the experiments were housed 3 per cage under dark cycle of 12 h-12 h (light on at 7:00 a.m., off at 7:00 p.m.) at a room temperature of 21±1° C., with a minimum 50% humidity, for a minimum of 7 days before the experiments. They had free access to commercial rat chow (UFAC, Vigney, France, ref 811002) and tap water. The learned helplessness test included two phases over 5 days.
Phase 1: Helplessness induction
On day 1, inescapable electric foot-shocks were delivered individually to rats in a Plexiglas chamber (20 cm×16 cm×16 cm [1×w×h]) with a floor consisting of stainless-steel rods. A constant-current shocker (LETICA LI 100-26, Barcelona, Spain) was used to deliver inescapable shocks (0.8 m A scrambled DC current; 10 s duration every 20 s) over 60 minutes. “Non-helplessness” control rats were placed for 1 h in identical chambers without shocking.
Phase 2: Conditional Avoidance Training
Avoidance training in automated two-way shuttle-box (LETICA LI916, Barcelona, Spain) took place on day 3, 4, and 5. The shuttle-box is divided into two equal-sized chambers connected by a 10×10 cm opening. […]

Test [8] is described as follows: formalin model (in vivo analgesia). The note with it: iv; administered intravenously. As to the method: as §2
Test [9] can be described thus: tail flick model (in vivo analgesia). To be noted: iv; administered intravenously. As to the method: as §2

Each structure is given as a SMILES string.

Chain of Sigma-1 (human) (Q99720 whole entry): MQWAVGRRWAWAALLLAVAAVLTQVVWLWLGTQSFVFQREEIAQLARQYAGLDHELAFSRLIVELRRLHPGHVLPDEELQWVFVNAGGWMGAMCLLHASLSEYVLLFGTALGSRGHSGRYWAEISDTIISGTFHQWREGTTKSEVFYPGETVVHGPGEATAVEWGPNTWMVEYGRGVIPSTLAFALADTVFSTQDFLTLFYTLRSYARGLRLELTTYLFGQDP
Chain of NE Transporter (P23975 whole entry): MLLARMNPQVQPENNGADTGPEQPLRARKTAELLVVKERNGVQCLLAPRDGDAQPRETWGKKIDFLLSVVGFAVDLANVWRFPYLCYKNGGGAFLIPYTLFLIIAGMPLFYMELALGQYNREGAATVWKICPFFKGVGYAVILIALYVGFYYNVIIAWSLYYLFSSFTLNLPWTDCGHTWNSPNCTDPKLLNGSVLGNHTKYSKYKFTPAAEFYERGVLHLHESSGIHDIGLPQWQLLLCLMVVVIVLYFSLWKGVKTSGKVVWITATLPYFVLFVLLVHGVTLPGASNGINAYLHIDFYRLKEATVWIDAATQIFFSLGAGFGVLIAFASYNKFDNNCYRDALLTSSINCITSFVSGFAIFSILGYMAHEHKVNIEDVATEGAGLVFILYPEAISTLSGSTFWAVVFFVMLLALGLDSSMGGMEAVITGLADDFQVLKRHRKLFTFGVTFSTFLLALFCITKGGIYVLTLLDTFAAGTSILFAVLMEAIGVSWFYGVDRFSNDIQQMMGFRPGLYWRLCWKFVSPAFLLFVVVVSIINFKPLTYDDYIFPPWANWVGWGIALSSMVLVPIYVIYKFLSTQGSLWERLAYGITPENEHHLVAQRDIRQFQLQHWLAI

The molecule `CS(=O)(=O)N(C[C@@H]1CCCN(CCc2ccccc2)C1)c1ccccc1` [Compound 12, (R)-N-(1-phenethyl-pieridin-3-ylmethyl)-N-phenyl-methanesulfonamide] gave an IC50 in [1] of 0.55 µM.

Take `CS(=O)(=O)N(C[C@@H]1CCCN(CC2(c3ccc(Cl)cc3)CCC2)C1)c1ccccc1` [Compound 21, N-{1-[1-(4-Chloro-phenyl)-cyclobutylmethyl]-piperidin-3-R-ylmethyl}-N-phenyl-methanesulfon-amide]: the 50% inhibitory concentration (IC50) in [2] stood at 2.8 µM; in [3], 0.062 µM.

For `CS(=O)(=O)N(C[C@H]1CCCN(CCc2ccccc2)C1)c1ccccc1` [Compound 16, (S)-N-(1-phenethyl-pieridin-3-ylmethyl)-N-phenyl-methanesulfonamide], in test [4], the MK-801-induced locomotion result is “dose-dependent reduction” and the MK-801-induced stereotypies entry is “dose-dependent reduction”. This molecule had a half-maximal inhibitory concentration (IC50) in test [1] of 0.022 µM.

For the molecule `CS(=O)(=O)N(CC1CCCNC1)c1ccccc1` (stereo not drawn) [Compound 5, N-phenyl-N-piperidin-3-ylmethyl-methanesulfonamide], in [5], the half-maximal inhibitory concentration (IC50) is 0.108 µM.

On to `CS(=O)(=O)N(CC1CCCN(CCc2ccccc2)C1)c1ccccc1` (racemic) [Compound 6, N-(1-phenethyl-pieridin-3-ylmethyl)-N-phenyl-methanesulfonamide], for which the ED50 is 7.8 mg/kg in test [6], 18 mg/kg in test [8] and 23 mg/kg in test [9]. In addition, the half-maximal inhibitory concentration (IC50) in [1] was found to be 0.118 µM. Also, in test [7], the “activity in the learned helplessness test” value was “active”.
